Test [1] concerns the target T1, Shp1 (Homo sapiens (Human), UniProt P29350).
In another test the target is Shp2 (Homo sapiens (Human), UniProt Q06124). In words: PTP activity assay (DiFMUP substrate) with GST-Shp2. It counts as biochemical. The note with it: for IC50: Table II, Shp2. From the text:
(§1) All constructs were verified by DNA sequencing.
(§2) Recombinant DEP1 was from Abcam.

The target of test [2] is T1, Shp1. In words: biochemical.
Another test deals with LAR (Homo sapiens (Human), UniProt P10586). As to the kind of experiment: PTP activity assay (DiFMUP substrate) with LAR D1 domain. To be noted: in vitro. Format: biochemical.
LAR, sequence (P10586 1352-1607): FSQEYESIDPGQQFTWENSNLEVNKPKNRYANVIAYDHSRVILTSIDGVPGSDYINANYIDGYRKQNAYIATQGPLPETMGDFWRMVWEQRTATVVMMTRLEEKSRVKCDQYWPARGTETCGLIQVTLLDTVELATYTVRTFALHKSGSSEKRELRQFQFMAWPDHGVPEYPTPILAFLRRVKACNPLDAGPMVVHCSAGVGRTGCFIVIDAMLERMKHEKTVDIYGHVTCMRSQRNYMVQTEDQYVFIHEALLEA
The next test concerns the target PTP1B (Homo sapiens (Human), UniProt P18031). In words: PTP activity assay (DiFMUP substrate) with GST-PTP1B. It counts as biochemical. To be noted: in vitro.
Text: as §1, §2

For the next test, the target named is DEP1 (Homo sapiens (Human), UniProt Q12913). As to the kind of experiment: PTP activity assay (DiFMUP substrate) with recombinant DEP1. Format: biochemical. To be noted: DEP1, in vitro.
DEP1, sequence (Q12913 36-1337): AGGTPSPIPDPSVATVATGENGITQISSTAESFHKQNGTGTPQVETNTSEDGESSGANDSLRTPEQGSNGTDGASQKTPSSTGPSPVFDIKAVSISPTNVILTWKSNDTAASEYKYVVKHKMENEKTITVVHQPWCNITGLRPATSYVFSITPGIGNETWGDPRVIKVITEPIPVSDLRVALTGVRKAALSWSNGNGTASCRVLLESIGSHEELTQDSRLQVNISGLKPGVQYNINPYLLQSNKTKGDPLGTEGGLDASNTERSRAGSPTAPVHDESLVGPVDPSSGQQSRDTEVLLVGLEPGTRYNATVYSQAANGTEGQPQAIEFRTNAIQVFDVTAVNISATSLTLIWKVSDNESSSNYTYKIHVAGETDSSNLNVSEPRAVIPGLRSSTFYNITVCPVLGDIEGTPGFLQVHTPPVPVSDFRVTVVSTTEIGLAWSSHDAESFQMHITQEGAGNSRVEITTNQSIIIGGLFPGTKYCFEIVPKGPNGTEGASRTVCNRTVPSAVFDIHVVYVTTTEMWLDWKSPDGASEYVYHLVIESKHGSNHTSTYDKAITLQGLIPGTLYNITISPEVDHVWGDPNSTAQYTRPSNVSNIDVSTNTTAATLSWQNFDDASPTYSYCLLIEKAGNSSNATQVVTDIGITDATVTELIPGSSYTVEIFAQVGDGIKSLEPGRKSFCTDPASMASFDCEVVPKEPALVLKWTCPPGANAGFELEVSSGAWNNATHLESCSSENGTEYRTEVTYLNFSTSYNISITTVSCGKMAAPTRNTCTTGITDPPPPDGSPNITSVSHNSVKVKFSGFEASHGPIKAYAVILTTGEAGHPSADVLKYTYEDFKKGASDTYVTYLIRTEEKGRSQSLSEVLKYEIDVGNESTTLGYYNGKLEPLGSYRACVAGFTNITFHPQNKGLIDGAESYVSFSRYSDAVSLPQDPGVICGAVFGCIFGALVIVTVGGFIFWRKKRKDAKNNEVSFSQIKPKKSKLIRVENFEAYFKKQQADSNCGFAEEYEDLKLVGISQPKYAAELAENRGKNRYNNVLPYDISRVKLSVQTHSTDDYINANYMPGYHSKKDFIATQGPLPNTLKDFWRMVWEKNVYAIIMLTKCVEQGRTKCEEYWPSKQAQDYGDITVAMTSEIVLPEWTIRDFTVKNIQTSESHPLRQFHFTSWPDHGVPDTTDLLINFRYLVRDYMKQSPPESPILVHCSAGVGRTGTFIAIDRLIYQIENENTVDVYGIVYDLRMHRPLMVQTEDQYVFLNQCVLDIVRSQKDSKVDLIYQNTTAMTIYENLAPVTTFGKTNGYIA
Test [3] deals with Gab1 tyrosine phosphorylation and Gab1-Shp2 association. As to the kind of experiment: EGF-induced Gab1 tyrosine phosphorylation and Gab1-Shp2 association in HEK293 cells. Format: cell-based. The note with it: 20 μM, 3 h, EGF 5 ng/ml 5 min. The method, then:
. Gab1 was immunoprecipitated from cell lysate supernatants. Immunoprecipitates were analyzed by immunoblotting with antibodies to phosphotyrosine (pY), Gab1, or Shp2. An aliquot of each cell lysate supernatant (30 μg) was also examined by immunoblotting with an antibody to Shp2 (bottom panel). pY-Gab1, tyrosine-phosphorylated Gab1.
Shp2 is activated in EGF-stimulated cells by binding to tyrosine-phosphorylated Gab1 (and Gab2 if it is also expressed) (Cunnick et al., 2001). […] . […] . […] .

Another test concerns the target CD45 (Homo sapiens (Human), UniProt P08575). In words: PTP activity assay (DiFMUP substrate) with recombinant CD45. The note with it: CD45, in vitro. Format: biochemical.

Structures are written as SMILES. Where two headings read alike, the source gives them in different places.

The source of these data is US8987474B2 (University of South Florida, priority 2006, dated 2015).

T1 sequence (P29350 203-595): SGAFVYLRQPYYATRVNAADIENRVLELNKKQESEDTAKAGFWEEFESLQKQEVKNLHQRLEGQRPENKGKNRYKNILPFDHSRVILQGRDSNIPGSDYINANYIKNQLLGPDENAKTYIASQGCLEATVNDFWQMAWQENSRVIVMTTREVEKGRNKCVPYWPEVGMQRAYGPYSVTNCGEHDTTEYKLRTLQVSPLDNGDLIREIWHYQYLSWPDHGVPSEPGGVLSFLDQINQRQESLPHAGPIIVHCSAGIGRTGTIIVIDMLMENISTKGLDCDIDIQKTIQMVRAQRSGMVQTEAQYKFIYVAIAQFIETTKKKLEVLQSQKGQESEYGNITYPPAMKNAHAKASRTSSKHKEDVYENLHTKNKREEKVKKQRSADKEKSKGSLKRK
Shp2, sequence (Q06124 205-593): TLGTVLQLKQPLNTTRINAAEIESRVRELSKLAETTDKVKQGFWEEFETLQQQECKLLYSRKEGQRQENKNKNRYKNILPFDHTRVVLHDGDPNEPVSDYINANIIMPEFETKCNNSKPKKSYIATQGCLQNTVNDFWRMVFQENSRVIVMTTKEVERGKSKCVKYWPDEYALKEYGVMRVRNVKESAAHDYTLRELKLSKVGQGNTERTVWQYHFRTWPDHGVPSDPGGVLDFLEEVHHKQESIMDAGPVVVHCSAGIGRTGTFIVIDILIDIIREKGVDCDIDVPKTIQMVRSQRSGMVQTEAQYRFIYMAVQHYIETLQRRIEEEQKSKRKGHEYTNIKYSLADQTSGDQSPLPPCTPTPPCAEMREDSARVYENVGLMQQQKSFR
PTP1B, sequence (P18031 whole entry): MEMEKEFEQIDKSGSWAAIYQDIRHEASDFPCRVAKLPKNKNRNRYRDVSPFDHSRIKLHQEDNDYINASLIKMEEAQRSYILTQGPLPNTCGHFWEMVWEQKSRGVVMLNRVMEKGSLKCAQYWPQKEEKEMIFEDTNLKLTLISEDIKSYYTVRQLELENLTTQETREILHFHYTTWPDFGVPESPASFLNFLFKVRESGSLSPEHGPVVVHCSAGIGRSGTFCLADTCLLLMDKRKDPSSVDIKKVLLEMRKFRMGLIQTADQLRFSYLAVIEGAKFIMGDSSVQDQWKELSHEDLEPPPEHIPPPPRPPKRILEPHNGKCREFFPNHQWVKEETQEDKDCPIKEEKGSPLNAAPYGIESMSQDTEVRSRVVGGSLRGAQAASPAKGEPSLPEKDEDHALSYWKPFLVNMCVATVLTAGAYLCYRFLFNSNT
CD45, sequence (P08575 609-1306): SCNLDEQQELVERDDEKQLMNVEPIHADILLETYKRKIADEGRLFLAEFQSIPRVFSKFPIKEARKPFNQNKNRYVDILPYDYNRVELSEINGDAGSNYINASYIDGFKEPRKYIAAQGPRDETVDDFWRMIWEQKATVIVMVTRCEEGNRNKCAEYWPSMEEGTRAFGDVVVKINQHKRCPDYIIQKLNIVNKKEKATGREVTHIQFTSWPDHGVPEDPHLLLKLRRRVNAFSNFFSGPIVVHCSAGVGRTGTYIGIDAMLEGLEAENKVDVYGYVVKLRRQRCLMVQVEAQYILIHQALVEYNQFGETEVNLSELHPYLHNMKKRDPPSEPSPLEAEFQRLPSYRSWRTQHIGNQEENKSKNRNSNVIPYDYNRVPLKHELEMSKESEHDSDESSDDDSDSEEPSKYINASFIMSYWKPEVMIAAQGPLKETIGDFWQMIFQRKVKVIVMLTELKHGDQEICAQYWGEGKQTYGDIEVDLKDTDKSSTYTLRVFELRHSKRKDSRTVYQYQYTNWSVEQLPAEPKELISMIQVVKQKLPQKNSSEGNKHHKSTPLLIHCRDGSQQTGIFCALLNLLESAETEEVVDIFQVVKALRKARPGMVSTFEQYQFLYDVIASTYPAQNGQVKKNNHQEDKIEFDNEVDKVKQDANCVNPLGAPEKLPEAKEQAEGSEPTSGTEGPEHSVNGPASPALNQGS

Turning to `O=C1Nc2ccc(S(=O)(=O)O)cc2/C1=N/Nc1ccccc1[N+](=O)[O-]` [HL1-056], inhibition at Shp1 [1] was half-maximal at 68.1 µM (IC50). For the same compound, the “% PTP activity” value on Shp2 (concentration not given) is 86 ± 3% (6).
Consider `O=C1Nc2ccc(C(=O)O)cc2/C1=N/Nc1ccccc1C(=O)O` [HL2-052-2], for which, on Shp2 (at 20 μM), the “% PTP activity” value was 46 ± 3% (2) at 20 μM. The IC50 – broadly, the concentration needed to halve the response being measured – against Shp1 [2] is 21.4 µM.
At Shp1 [1], `O=C1Nc2ccc(C(=O)O)cc2/C1=N/Nc1cccc(C(=O)O)c1` [HL2-052-3] yielded an IC50 of 72.5 µM. The “% PTP activity” value at Shp2 (at 20 μM) is reported as 56.94% (1) at 20 μM.
Taken in the same sequence, the figures for `O=C1Nc2ccc(C(=O)NCc3ccc(Cl)cc3)cc2/C1=N/Nc1cccc(C(=O)O)c1` [HL2-070-5] were 19.4 µM and 62.32% (1) at 20 μM.
On to `O=S(=O)(O)c1ccc2cc(/N=N\c3cc(S(=O)(=O)O)c4cccnc4c3O)ccc2c1` [NSC-87877, 8-hydroxy-7-(6-sulfonaphthalen-2-yl)diazenyl-quinoline-5-sulfonic acid], for which the IC50 on LAR is 151 ± 9.08 µM; against PTP1B, 1.69 ± 0.407 µM; on DEP1, 65.6 ± 4.12 µM; on Shp1 [2], 0.355 µM; at CD45, 84.5 ± 16.2 µM. Further, the “EGF-stimulated Gab1 tyrosine phosphorylation” value in test [3] is on record as “did not inhibit”. For the same compound, the “binding of Shp2 to Gab1” value in test [3] is “did not inhibit”.
`NS(=O)(=O)c1ccc2c(c1)/C(=N/Nc1ccccc1[N+](=O)[O-])C(=O)N2` [RPM134, 3-[(2-Nitrophenyl)hydrazono]-2-oxo-2,3-dihydro-1H-indole-5-sulfonicamide]: the “% PTP activity” value on Shp2 (concentration not given) was 13 ± 5% (12). The same compound yielded an IC50 against Shp1 [2] of 93.5 µM.
For `O=C1Nc2ccc(S(=O)(=O)NCc3ccc(Cl)cc3)cc2/C1=N/Nc1ccccc1[N+](=O)[O-]` [RPM139, 3-[(2-Nitrophenyl)hydrazono]-2-oxo-2,3-dihydro-1H-indole-5-sulfonic acid 4-chlorobenzylamide], in that order: 12 ± 5% (12) and 42.2 µM.
For `CC(C)NS(=O)(=O)c1ccc2c(c1)/C(=N/Nc1ccccc1[N+](=O)[O-])C(=O)N2` [RPM169, 3-[(2-Nitrophenyl)hydrazono]-2-oxo-2,3-dihydro-1H-indole-5-sulfonic acid isopropylamide], in that order: 8 + 3% (12) and 110 µM.
For the compound `CC(C)NS(=O)(=O)c1ccc2c(c1)/C(=N/Nc1ccccc1C(=O)O)C(=O)N2` [RPM186, 2-[N′-(5-Isopropylsulfamoyl-2-oxo-1,2-dihydro-indol-3-ylidene)-hydrazino]benzoic acid], the “% PTP activity” value at Shp2 (at 20 μM) is recorded as 0.8 ± 1% (3) at 20 μM. 10.8 µM corresponded to half-maximal inhibition against Shp1 [2] (IC50).
`CC(C)NS(=O)(=O)c1ccc2c(c1)/C(=N/Nc1cccc(C(=O)O)c1)C(=O)N2` [RPM297, 3-[N′-(5-Isopropylsulfamoyl-2-oxo-1,2-dihydro-indol-3-ylidene)hydrazino]benzoic acid] had a half-inhibitory concentration (IC50) at Shp1 [1] of 15.7 µM. In addition, the “% PTP activity” value at Shp2 (at 20 μM) is given as 54 ± 8% (2) At 20 μM.
On to `CC(C)NS(=O)(=O)c1ccc2c(c1)/C(=N/Nc1cccc(C(=O)NCc3cccnc3)c1)C(=O)N2` [RPM332, 3-[N′-(5-Isopropylsulfamoyl-2-oxo-1,2-dihydro-indol-3-ylidene)hydrazino]-N-pyridin-3-ylmethylbenzamide], for which the IC50 at Shp2 is 33 to 100 µM. Moreover, the “% PTP activity” value on Shp2 (at 20 μM) was 54 ± 7% (2) at 20 μM.
Compound `CC(C)NS(=O)(=O)c1ccc2c(c1)/C(=N/Nc1cccc(C(=O)NCc3ccco3)c1)C(=O)N2` [RPM333, N-Furan-2-ylmethyl-3-[′-(5-isopropylsulfamoyl-2-oxo-1,2-dihydro-indol-3-ylidene)hydrazino]benzamide] returned an IC50 on Shp2 of 33 to 100 µM. Further, the “% PTP activity” value at Shp2 (at 20 μM) is 48 ± 9% (2) at 20 μM.
As to `CC(C)NS(=O)(=O)c1ccc2c(c1)/C(=N/Nc1cccc(C(=O)NCCN3CCOCC3)c1)C(=O)N2` [RPM334, 3-[N′-(5-Isopropylsulfamoyl-2-oxo-1,2-dihydro-indol-3-ylidene)hydrazino]-N-(2-morpholin-4-yl-ethyl)benzamide], the “% PTP activity” value on Shp2 (at 20 μM) is on record as 39 ± 5% (2) at 20 μM.
The compound `COC(=O)c1ccccc1N/C=C1\C(=O)Nc2ccc(S(=O)(=O)NC(C)C)cc21` [RPM335, 2-[(5-Isopropylsulfamoyl-2-oxo-1,2-dihydro-indol-3-ylidenemethyl)amino]benzoic acid methyl ester] gave an IC50 at Shp2 of 33 to 100 µM. Besides, the “% PTP activity” value at Shp2 (at 20 μM) is given as 54.19% (1) At 20 μM.
For `CC(C)NS(=O)(=O)c1ccc2c(c1)/C(=C/Nc1ccccc1C(=O)O)C(=O)N2` [RPM336, 2-[(5-Isopropylsulfamoyl-2-oxo-1,2-dihydro-indol-3-ylidenemethyl)amino]benzoic acid], in that order: 33 to 100 µM and 48 ± 7% (2) at 20 μM.
On to `COC(=O)c1ccc2[nH]cc(C(=O)c3ccccc3)c2c1` [RPM341, 3-Benzoyl-1H-indole-5-carboxylic acid methyl ester], for which the “% PTP activity” value at Shp2 (at 20 μM) was 42 ± 10% (2) at 20 μM.
On the same count and under the same terms, under `COC(=O)c1ccccc1/C=C1\C(=O)Nc2ccc(S(=O)(=O)NC(C)C)cc21` [RPM347, 2-(5-Isopropylsulfamoyl-2-oxo-1,2-dihydro-indol-3-ylidenemethyl)benzoic acid methyl ester] stands 48 ± 9% (2) At 20 μM; under `O=C(O)c1ccc2[nH]cc(C(=O)c3ccccc3)c2c1` [RPM352, 3-Benzoyl-1H-indole-5-carboxylic acid], 57 ± 9% (2) at 20 μM.
